Data taken from ChEMBL document CHEMBL1144381, “Synthesis and antimycobacterial activity of ferrocenyl ethambutol analogues and ferrocenyl diamines” (2005).

System: Mycobacterium tuberculosis
Experiment: In vitro minimum inhibitory concentration measured against Mycobacterium tuberculosis H37Rv strain
Format: functional

Molecule | MIC
(cyclopenta-1,3-dien-1-ylmethyl)({4-[(cyclopenta-1,3-dien-1-ylmethyl)amino]butyl})amine bis(cyclopenta-1,3-diene) diiron | 32 µg/mL
(1S)-2-({[4-({[(5R)-5-hydroxycyclopenta-1,3-dien-1-yl]methyl}amino)butyl]amino}methyl)cyclopenta-2,4-dien-1-ol bis(cyclopenta-1,3-diene) diiron | > 64 µg/mL
c1ccc(CNCCNCc2ccccc2)cc1 | > 64 µg/mL
(cyclopenta-1,3-dien-1-ylmethyl)({2-[(cyclopenta-1,3-dien-1-ylmethyl)amino]ethyl})amine bis(cyclopenta-1,3-diene) diiron | 8 µg/mL
(cyclopenta-1,3-dien-1-ylmethyl)({3-[(cyclopenta-1,3-dien-1-ylmethyl)amino]propyl})amine bis(cyclopenta-1,3-diene) diiron | 8 µg/mL
(cyclopenta-1,3-dien-1-ylmethyl)(hexyl)amine (cyclopenta-1,3-dien-1-ylmethyl)(methyl)amine bis(cyclopenta-1,3-diene) diiron | 32 µg/mL
(1S)-2-({[6-({[(5R)-5-hydroxycyclopenta-1,3-dien-1-yl]methyl}amino)hexyl]amino}methyl)cyclopenta-2,4-dien-1-ol bis(cyclopenta-1,3-diene) diiron | > 64 µg/mL
